Results as given in US20100168125A1, “INDOLIZINES AND AZA-ANALOG DERIVATIVES THEREOF AS CNS ACTIVE COMPOUNDS” (priority 2007, published 2010).
Where two headings read alike, the source gives them in different places.

What was measured:
human D4.4 receptor = biological target: T1, human D4.4 receptor (Homo sapiens, UniProt P21917); experiment: radioligand binding with [^3H]spiperone, D4.4
T1 construct: expressed in transfected cells; host or cells: Chinese hamster ovary (CHO) cells, membranes
T1 sequence (P21917 1-419): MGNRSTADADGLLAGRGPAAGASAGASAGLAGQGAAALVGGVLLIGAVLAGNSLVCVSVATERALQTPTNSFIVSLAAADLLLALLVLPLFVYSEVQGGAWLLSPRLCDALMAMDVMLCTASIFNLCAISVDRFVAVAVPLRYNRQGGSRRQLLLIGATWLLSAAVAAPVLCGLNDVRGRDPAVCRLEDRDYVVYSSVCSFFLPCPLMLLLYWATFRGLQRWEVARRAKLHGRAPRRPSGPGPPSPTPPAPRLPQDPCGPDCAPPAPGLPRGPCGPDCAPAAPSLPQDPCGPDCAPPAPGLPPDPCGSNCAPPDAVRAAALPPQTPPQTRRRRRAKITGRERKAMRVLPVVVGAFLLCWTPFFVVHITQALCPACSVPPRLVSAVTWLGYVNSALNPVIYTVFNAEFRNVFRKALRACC
Procedure: (§1) For the determination of binding affinity to the receptors of the dopamine D2 family membranes were established carrying the human D2long, D2short, D3 or D4.4 receptor subtype expressed in Chinese hamster ovary cell lines. In principle, the binding experiments started when incubating an appropriate amount of membrane with the radioligand [^3H]spiperone and the particular test compounds diluted in a wide range of different concentrations from subnanomolar up to micromolar.

human D2short receptor = biological target: T2, human D2short receptor (Homo sapiens, UniProt P14416); experiment: radioligand binding with [^3H]spiperone, D2short; conditions: read-out: Ki D2sh
T2 construct: expressed in transfected cells; host or cells: Chinese hamster ovary (CHO) cells, membranes
Procedure: as §1

human D3 receptor = biological target: T3, human D3 receptor (Homo sapiens, UniProt P35462); experiment: radioligand binding with [^3H]spiperone, D3
T3 construct: expressed in transfected cells; host or cells: Chinese hamster ovary (CHO) cells, membranes
Procedure: as §1

[1] = biological target: dopamine D2short receptor (Homo sapiens, UniProt P14416); experiment: [^35S]GTPγS-incorporation assay, intrinsic activity
human D2long receptor = biological target: T4, human D2long receptor (Homo sapiens, UniProt P14416); experiment: radioligand binding with [^3H]spiperone, D2long; conditions: read-out: Ki D2lo
T4 construct: expressed in transfected cells; host or cells: Chinese hamster ovary (CHO) cells, membranes
Procedure: as §1

5-HT2 receptor = biological target: T5, 5-HT2 receptor (Sus scrofa, UniProt P50129); experiment: radioligand binding, porcine cortical membranes, [^3H]ketanserin
T5 construct: membrane preparations from porcine cortical material; from tissue; host or cells: porcine cerebral cortex membranes

5-HT1A receptor = biological target: T6, 5-HT1A receptor (Sus scrofa, UniProt A0A4X1UTF5); experiment: radioligand binding, porcine cortical membranes, [^3H]8-OH-DPAT and [^3H]WAY 100635
T6 construct: membrane preparations from porcine cortical material; from tissue; host or cells: porcine cerebral cortex membranes
T6 sequence (A0A4X1UTF5 1-422): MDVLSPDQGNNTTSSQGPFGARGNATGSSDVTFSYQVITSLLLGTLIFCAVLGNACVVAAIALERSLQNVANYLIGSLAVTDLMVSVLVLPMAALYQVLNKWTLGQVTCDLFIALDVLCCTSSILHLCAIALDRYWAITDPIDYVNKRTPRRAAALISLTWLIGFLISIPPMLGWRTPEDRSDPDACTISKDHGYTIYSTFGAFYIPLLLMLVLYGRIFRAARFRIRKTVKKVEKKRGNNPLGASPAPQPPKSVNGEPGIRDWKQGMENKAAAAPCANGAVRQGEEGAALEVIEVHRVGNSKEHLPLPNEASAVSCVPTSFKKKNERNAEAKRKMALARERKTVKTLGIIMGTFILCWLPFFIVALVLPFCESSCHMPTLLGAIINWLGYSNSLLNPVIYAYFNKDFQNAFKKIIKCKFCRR

[2] = [^3H]spiperone, CHO membranes, mean of 2 to 4 experiments
[3] = read-out: D2short: [^35S]GTPγS intrinsic activity, % activity of quinpirol
[4] = porcine cortical membranes, [^3H]ketanserin
[5] = read-out: D2short: [^35S]GTPγS intrinsic activity
[6] = ether alkylene linker compounds

T4 sequence (P14416 whole entry): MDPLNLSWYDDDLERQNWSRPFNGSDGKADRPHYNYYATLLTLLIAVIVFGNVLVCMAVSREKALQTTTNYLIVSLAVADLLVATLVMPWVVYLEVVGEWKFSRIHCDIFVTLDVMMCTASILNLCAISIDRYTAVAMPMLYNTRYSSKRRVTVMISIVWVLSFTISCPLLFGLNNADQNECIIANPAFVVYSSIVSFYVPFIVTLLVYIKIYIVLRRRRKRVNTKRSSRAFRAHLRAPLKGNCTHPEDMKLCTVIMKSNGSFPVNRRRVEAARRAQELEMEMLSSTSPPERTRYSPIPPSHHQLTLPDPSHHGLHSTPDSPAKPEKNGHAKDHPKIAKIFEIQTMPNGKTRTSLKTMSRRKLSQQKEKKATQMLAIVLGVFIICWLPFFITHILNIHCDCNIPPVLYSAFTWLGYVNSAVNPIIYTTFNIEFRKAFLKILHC
T5 sequence (P50129 whole entry): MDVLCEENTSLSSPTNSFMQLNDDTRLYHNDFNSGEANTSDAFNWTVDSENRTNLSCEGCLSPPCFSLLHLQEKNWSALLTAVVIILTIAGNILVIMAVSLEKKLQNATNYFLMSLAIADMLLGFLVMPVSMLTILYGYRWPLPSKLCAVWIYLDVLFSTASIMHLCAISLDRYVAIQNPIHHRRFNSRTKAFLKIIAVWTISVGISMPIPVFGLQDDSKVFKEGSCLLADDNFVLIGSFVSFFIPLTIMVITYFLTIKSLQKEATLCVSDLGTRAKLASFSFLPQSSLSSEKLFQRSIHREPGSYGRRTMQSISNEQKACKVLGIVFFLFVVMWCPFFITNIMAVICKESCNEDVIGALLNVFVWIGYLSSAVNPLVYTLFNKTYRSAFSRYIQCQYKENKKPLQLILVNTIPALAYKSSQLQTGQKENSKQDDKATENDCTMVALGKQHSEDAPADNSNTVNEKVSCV
dopamine D2short receptor, sequence (P14416 1-414 isoform P14416-2): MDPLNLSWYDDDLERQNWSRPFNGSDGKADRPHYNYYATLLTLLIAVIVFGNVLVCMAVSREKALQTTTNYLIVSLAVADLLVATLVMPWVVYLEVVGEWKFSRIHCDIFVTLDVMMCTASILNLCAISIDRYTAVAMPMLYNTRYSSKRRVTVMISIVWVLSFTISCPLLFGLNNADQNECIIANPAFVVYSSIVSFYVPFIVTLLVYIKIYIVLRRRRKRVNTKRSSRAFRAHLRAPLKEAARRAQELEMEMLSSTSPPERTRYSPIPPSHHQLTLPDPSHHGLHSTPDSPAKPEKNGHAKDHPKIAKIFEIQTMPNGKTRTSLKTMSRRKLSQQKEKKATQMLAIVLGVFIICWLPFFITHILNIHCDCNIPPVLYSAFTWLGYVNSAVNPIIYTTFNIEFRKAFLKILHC
T2 sequence (P14416 1-414 isoform P14416-2): as above
T3 sequence (P35462 whole entry): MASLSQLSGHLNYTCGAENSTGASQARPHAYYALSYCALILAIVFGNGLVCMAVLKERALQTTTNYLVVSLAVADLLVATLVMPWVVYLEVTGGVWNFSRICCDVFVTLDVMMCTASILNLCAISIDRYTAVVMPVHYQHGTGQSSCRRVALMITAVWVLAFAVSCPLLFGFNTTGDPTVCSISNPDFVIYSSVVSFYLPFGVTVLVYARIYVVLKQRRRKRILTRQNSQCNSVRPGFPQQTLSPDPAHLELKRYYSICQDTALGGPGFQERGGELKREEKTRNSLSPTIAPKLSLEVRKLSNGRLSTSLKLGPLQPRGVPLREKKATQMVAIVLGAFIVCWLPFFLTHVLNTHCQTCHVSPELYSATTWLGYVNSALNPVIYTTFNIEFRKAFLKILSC

Row | Structure (SMILES) | melting point [°C] | Ki (human D4.4 receptor; [2]) [µM] | Ki (human D2short receptor; [2]) [µM] | Ki (human D3 receptor; [2]) [µM] | Emax [1, 3] [%] | Ki (human D2long receptor; [2]) [µM] | Ki (5-HT2 receptor; [4]) [µM] | Ki (5-HT1A receptor; porcine cortical membranes) [µM] | Emax [1, 5] [%] | Ki (human D4.4 receptor; [6]) [µM] | Ki (human D2short receptor; [6]) [µM] | Ki (human D3 receptor; [6]) [µM] | Ki (human D2long receptor; [6]) [µM] | Ki (5-HT2 receptor; [6]) [µM] | Ki (5-HT1A receptor; [6]) [µM] | ratio D2lo/D3 (human D3 receptor; ratio of Ki values)
1 | O=Cc1cnn2cc(OCCCCN3CCN(c4ccccc4Cl)CC3)ccc12 [Example E56] | 71 | < 0.03 | < 0.03 | < 0.03 | 15 to 40 | < 0.03 | 0.301 to 3 | < 0.03 |  |  |  |  |  |  |  | 
2 | COc1ccccc1N1CCN(CCCCOc2nn3ccccc3c2C=O)CC1 [Example E5, 2-[4-[4-(2-Methoxyphenyl)piperazin-1-yl]butoxy]pyrazolo[1,5-a]pyridine-3-carbaldehyde] | 101 | < 0.03 | < 0.03 | < 0.03 |  | < 0.03 | 0.301 to 3 | < 0.03 | 15 to 40 |  |  |  |  |  |  | 
3 | COc1ccc(N2CCN(CCCCOc3ccn4nccc4c3)CC2)cc1 [Example E18] | 111 | 0.301 to 3 | 0.301 to 3 | 0.03 to 0.3 | < 15 | > 3 | 0.301 to 3 | 0.03 to 0.3 |  |  |  |  |  |  |  | 
4 | Oc1ccc(N2CCN(CCCCOc3ccn4nccc4c3)CC2)cc1 [Example E20, 5-[4-[4-(4-Hydroxyphenyl)piperazin-1-yl]butoxy]pyrazolo[1,5-a]pyridine] | 124 | 0.301 to 3 | 0.03 to 0.3 | 0.03 to 0.3 | 15 to 40 | 0.03 to 0.3 | 0.301 to 3 | > 3 |  |  |  |  |  |  |  | 
5 | N#Cc1cnn2ccc(OCCCCN3CCN(c4ccccc4Cl)CC3)cc12 [Example E38, 5-[4-[4-(2-Chlorophenyl)piperazin-1-yl]butoxy]pyrazolo[1,5-a]pyridine-3-carbonitrile] | 119 | < 0.03 | < 0.03 | < 0.03 | 15 to 40 | < 0.03 | 0.03 to 0.3 | < 0.03 |  |  |  |  |  |  |  | 
6 | O=Cc1cnn2cc(OCCCCN3CCN(c4cccc(Cl)c4Cl)CC3)ccc12 [Example E54, 6-[4-[4-(2,3-Dichlorophenyl)piperazin-1-yl]butoxy]pyrazolo[1,5-a]pyridine-3-carbaldehyde] | 99 | < 0.03 | < 0.03 | < 0.03 | < 15 | < 0.03 | 0.03 to 0.3 | < 0.03 |  |  |  |  |  |  |  | 
7 | Clc1ccccc1N1CCN(CCCCOc2cccn3nccc23)CC1 [Example E9, 4-[4-[4-(2-Chlorophenyl)piperazin-1-yl]butoxy]pyrazolo[1,5-a]pyridine] | 88 | < 0.03 | < 0.03 | < 0.03 |  | < 0.03 | 0.301 to 3 | < 0.03 | < 15 |  |  |  |  |  |  | 
8 | Clc1cccc(N2CCN(CCCOCc3ccn4nccc4c3)CC2)c1Cl [Example E13, 5-[3-[4-(2,3-Dichlorophenyl)piperazin-1-yl]propoxymethyl]pyrazolo[1,5-a]pyridine] | 69 | 0.03 to 0.3 | < 0.03 | < 0.03 |  | < 0.03 | 0.03 to 0.3 | 0.03 to 0.3 | < 15 |  |  |  |  |  |  | 
9 | Clc1cccc(N2CCN(CCCCOc3ccn4nccc4c3)CC2)c1Cl [Example E15, 5-[4-[4-(2,3-Dichlorophenyl)piperazin-1-yl]butoxy]pyrazolo[1,5-a]pyridine] | 105 | 0.03 to 0.3 | 0.03 to 0.3 | < 0.03 | 15 to 40 | 0.03 to 0.3 | 0.301 to 3 | 0.03 to 0.3 |  |  |  |  |  |  |  | 
10 | Clc1cccc(N2CCN(CCCCOc3cc4ccccn4n3)CC2)c1Cl [Example E1, 2-[4-[4-(2,3-Dichlorophenyl)piperazin-1-yl]butoxy]pyrazolo[1,5-a]pyridine] | 161 | 0.03 to 0.3 | < 0.03 | < 0.03 | < 15 | < 0.03 | 0.03 to 0.3 | < 0.03 |  | 0.033 | 0.01 | 0.0035 | 0.0094 | 0.15 | 0.017 | 
11 | Clc1cccc(N2CCN(CCCCOc3cccc4ccnn34)CC2)c1Cl [Example E57, 7-[4-[4-(2,3-Dichlorophenyl)piperazin-1-yl]butoxy]pyrazolo[1,5-a]pyridine] | 74 | 0.03 to 0.3 | < 0.03 | < 0.03 | 15 to 40 | 0.03 to 0.3 | 0.03 to 0.3 | 0.03 to 0.3 |  |  |  |  |  |  |  | 
12 | O=Cc1cnn2ccc(OCCCCN3CCN(c4ccccc4Cl)CC3)cc12 [Example E23, 5-[4-[4-(2-Chlorophenyl)piperazin-1-yl]butoxy]pyrazolo[1,5-a]pyridine-3-carbaldehyde] | 116 | < 0.03 | < 0.03 | < 0.03 | 15 to 40 | < 0.03 | 0.301 to 3 | < 0.03 |  |  |  |  |  |  |  | 
13 | COc1ccccc1N1CCN(CCCCOc2ccn3ncc(I)c3c2)CC1 [Example E49, 3-Iodo-5-[4-[4-(2-methoxyphenyl)piperazin-1-yl]butoxy]pyrazolo[1,5-a]pyridine] | 61 | < 0.03 | < 0.03 | < 0.03 | < 15 | < 0.03 | 0.301 to 3 | < 0.03 |  |  |  |  |  |  |  | 
14 | COC(=O)c1cnn2ccc(OCCCCN3CCN(c4cccc(Cl)c4Cl)CC3)cc12 [Example E39, Methyl 5-[4-[4-(2,3-dichlorophenyl)piperazin-1-yl]butoxy]pyrazolo[1,5-a]pyridine-3-carboxylate] | 73 | < 0.03 | < 0.03 | < 0.03 | < 15 | < 0.03 | 0.03 to 0.3 | < 0.03 |  |  |  |  |  |  |  | 
15 | O=Cc1cnn2ccc(OCCCCN3CCN(c4ccc(Cl)cc4)CC3)cc12 [Example E25] | 113 | 0.03 to 0.3 | < 0.03 | 0.03 to 0.3 | 15 to 40 | < 0.03 | 0.301 to 3 | 0.03 to 0.3 |  |  |  |  |  |  |  | 
16 | COc1ccccc1N1CCN(CCCCOc2ccn3ncc(Cl)c3c2)CC1 [Example E46, 3-Chloro-5-[4-[4-(2-methoxyphenyl)piperazin-1-yl]butoxy]pyrazolo[1,5-a]pyridine] | 68 | < 0.03 | < 0.03 | < 0.03 | < 15 | < 0.03 | 0.301 to 3 | < 0.03 |  | 0.0032 | 0.0043 | 0.0046 | 0.0068 | 0.91 | 0.0088 | 1.5
17 | COC(=O)c1cnn2ccc(OCCCCN3CCN(c4ccccc4OC)CC3)cc12 [Example E40, Methyl 5-[4-[4-(2-methoxyphenyl)piperazin-1-yl]butoxy]pyrazolo[1,5-a]pyridine-3-carboxylate] | 75 | < 0.03 | < 0.03 | < 0.03 | 15 to 40 | < 0.03 | 0.03 to 0.3 | < 0.03 |  |  |  |  |  |  |  | 
18 | Clc1ccccc1N1CCN(CCCCOc2ccn3ncc(Cl)c3c2)CC1 [Example E47, 3-Chloro-5-[4-[4-(2-chlorophenyl)piperazin-1-yl]butoxy]pyrazolo[1,5-a]pyridine] | 63 | 0.03 to 0.3 | < 0.03 | < 0.03 | < 15 | 0.03 to 0.3 | 0.301 to 3 | 0.03 to 0.3 |  |  |  |  |  |  |  | 
